Results on four compounds are retold here after patent publication US20240300932A1, “N-PHENYLIMINE DERIVATIVE AND PREPARATION METHOD AND USE THEREOF” (Guizhou University, priority 2023, published 2024).

Common to all, as to experiment: Post-emergence herbicidal activity test (stem and leaf spray, pot culture)
Common to all, as to assay type: in vivo
Holding throughout (details): 3 weeks after spraying

The test system of one assay is Trifoliumre pensL. In a few lines: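 Rates of 10, 5 and 2.5 g/mu were applied in a single spray-tower treatment to 2–3-leaf plants, thinned to 10 per pot. Formulation: acetone solution, Tween 80, 1.5 L/ha methyl oleate synergist. Weed response assessed after 3 further greenhouse weeks; mean of three experiments.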
The subject of a further assay is Echinochloa crusgalli. A digest of the protocol:
(§1)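 Greenhouse pot-grown weeds (loam, pH 7) sprayed post-emergence at 2- to 3-leaf stage with acetone/Tween 80 formulation plus 1.5 liters/ha methyl oleate, at 10, 5 and 2.5 g/mu. Fresh-weight growth control rated 3 weeks later on 0–5 grade scale.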

The subject of a further assay is Portulaca oleracea. A digest of the protocol:
as §1

The test system of the next assay is Amaranthus retroflexus. In a few lines:
as §1

Another assay relates to Abutilon theophrasti. In a few lines: as §1
A further assay has as its system Setaria viridis. In a few lines: as §1

Regarding `O=C1C2=C(CCCC2)C(=O)N1c1cc(OCc2nc(-c3ccc(OC(F)(F)F)cc3)no2)c(Cl)cc1F` [Compound A20], the “Post-emergence herbicidal activity, Trifoliumre pensL. (grade)” value was 4 (Grade 4: the growth control rate is greater than or equal to 60% and less than 85%) in the assay with Trifoliumre pensL. (dosage 2.5 g/mu); 5 (Grade 5: the growth control rate is greater than or equal to 85%) in the assay on Trifoliumre pensL. (dosage 5 g/mu); 5 (Grade 5: the growth control rate is greater than or equal to 85%) in the assay with Trifoliumre pensL. (dosage 10 g/mu). Moreover, the “Post-emergence herbicidal activity, E. crusgalli (grade)” value with Echinochloa crusgalli (dosage 2.5 g/mu) is 1 (Grade 1: the growth control rate is greater than or equal to 5% and less than 20%); in the assay on Echinochloa crusgalli (dosage 5 g/mu), 2 (Grade 2: the growth control rate is greater than or equal to 20% and less than 40%); in the assay on Echinochloa crusgalli (dosage 10 g/mu), 3 (Grade 3: the growth control rate is greater than or equal to 40% and less than 60%). Also, the “Post-emergence herbicidal activity, P. oleracea (grade)” value in the assay with Portulaca oleracea (dosage 2.5 g/mu) is 4 (Grade 4: the growth control rate is greater than or equal to 60% and less than 85%); in the assay with Portulaca oleracea (dosage 5 g/mu) it was 5 (Grade 5: the growth control rate is greater than or equal to 85%); in the assay on Portulaca oleracea (dosage 10 g/mu), 5 (Grade 5: the growth control rate is greater than or equal to 85%). Further, the “Post-emergence herbicidal activity, A. retroflexus (grade)” value in the assay with Amaranthus retroflexus (dosage 2.5 g/mu), in the assay with Amaranthus retroflexus (dosage 5 g/mu) and with Amaranthus retroflexus (dosage 10 g/mu) was 5 (Grade 5: the growth control rate is greater than or equal to 85%) throughout. Besides, the “Post-emergence herbicidal activity, A. theophrasti (grade)” value with Abutilon theophrasti (dosage 2.5 g/mu), with Abutilon theophrasti (dosage 5 g/mu) and in the assay on Abutilon theophrasti (dosage 10 g/mu) was 5 (Grade 5: the growth control rate is greater than or equal to 85%) in each case. For the same compound, the “Post-emergence herbicidal activity, S. viridis (grade)” value in the assay with Setaria viridis (dosage 2.5 g/mu) is 2 (Grade 2: the growth control rate is greater than or equal to 20% and less than 40%); with Setaria viridis (dosage 5 g/mu), 3 (Grade 3: the growth control rate is greater than or equal to 40% and less than 60%); in the assay with Setaria viridis (dosage 10 g/mu) it was 4 (Grade 4: the growth control rate is greater than or equal to 60% and less than 85%).
Consider `O=C1C2=C(CCCC2)C(=O)N1c1cc(OCc2nc(-c3cc(F)ccc3Cl)no2)c(Cl)cc1F` [Compound A21], for which the “Post-emergence herbicidal activity, Trifoliumre pensL. (grade)” value in the assay on Trifoliumre pensL. (dosage 2.5 g/mu) is 4 (Grade 4: the growth control rate is greater than or equal to 60% and less than 85%); in the assay on Trifoliumre pensL. (dosage 5 g/mu) it was 5 (Grade 5: the growth control rate is greater than or equal to 85%); with Trifoliumre pensL. (dosage 10 g/mu), 5 (Grade 5: the growth control rate is greater than or equal to 85%). Further, the “Post-emergence herbicidal activity, E. crusgalli (grade)” value in the assay on Echinochloa crusgalli (dosage 2.5 g/mu) was 1 (Grade 1: the growth control rate is greater than or equal to 5% and less than 20%); with Echinochloa crusgalli (dosage 5 g/mu) it was 2 (Grade 2: the growth control rate is greater than or equal to 20% and less than 40%); in the assay on Echinochloa crusgalli (dosage 10 g/mu) it was 3 (Grade 3: the growth control rate is greater than or equal to 40% and less than 60%). Besides, the “Post-emergence herbicidal activity, P. oleracea (grade)” value with Portulaca oleracea (dosage 2.5 g/mu) is 4 (Grade 4: the growth control rate is greater than or equal to 60% and less than 85%); in the assay with Portulaca oleracea (dosage 5 g/mu) it was 5 (Grade 5: the growth control rate is greater than or equal to 85%); in the assay with Portulaca oleracea (dosage 10 g/mu) it was 5 (Grade 5: the growth control rate is greater than or equal to 85%). For the same compound, the “Post-emergence herbicidal activity, A. retroflexus (grade)” value in the assay with Amaranthus retroflexus (dosage 2.5 g/mu), in the assay with Amaranthus retroflexus (dosage 5 g/mu) and with Amaranthus retroflexus (dosage 10 g/mu) was 5 (Grade 5: the growth control rate is greater than or equal to 85%) each time. Further, the “Post-emergence herbicidal activity, A. theophrasti (grade)” value in the assay on Abutilon theophrasti (dosage 2.5 g/mu), in the assay with Abutilon theophrasti (dosage 5 g/mu) and in the assay with Abutilon theophrasti (dosage 10 g/mu) was 5 (Grade 5: the growth control rate is greater than or equal to 85%) in each case. Besides, the “Post-emergence herbicidal activity, S. viridis (grade)” value in the assay on Setaria viridis (dosage 2.5 g/mu) is 2 (Grade 2: the growth control rate is greater than or equal to 20% and less than 40%); in the assay on Setaria viridis (dosage 5 g/mu), 3 (Grade 3: the growth control rate is greater than or equal to 40% and less than 60%); in the assay with Setaria viridis (dosage 10 g/mu), 4 (Grade 4: the growth control rate is greater than or equal to 60% and less than 85%).
On to `O=C1C2=C(CCCC2)C(=O)N1c1cc(OCc2nc(-c3ccco3)no2)c(Cl)cc1F` [Compound A22], for which the “Post-emergence herbicidal activity, Trifoliumre pensL. (grade)” value was 4 (Grade 4: the growth control rate is greater than or equal to 60% and less than 85%) with Trifoliumre pensL. (dosage 2.5 g/mu); 5 (Grade 5: the growth control rate is greater than or equal to 85%) in the assay on Trifoliumre pensL. (dosage 5 g/mu); 5 (Grade 5: the growth control rate is greater than or equal to 85%) in the assay on Trifoliumre pensL. (dosage 10 g/mu). Besides, the “Post-emergence herbicidal activity, E. crusgalli (grade)” value is 1 (Grade 1: the growth control rate is greater than or equal to 5% and less than 20%) in the assay on Echinochloa crusgalli (dosage 2.5 g/mu); 2 (Grade 2: the growth control rate is greater than or equal to 20% and less than 40%) in the assay on Echinochloa crusgalli (dosage 5 g/mu); 3 (Grade 3: the growth control rate is greater than or equal to 40% and less than 60%) with Echinochloa crusgalli (dosage 10 g/mu). For the same compound, the “Post-emergence herbicidal activity, P. oleracea (grade)” value in the assay on Portulaca oleracea (dosage 2.5 g/mu) was 4 (Grade 4: the growth control rate is greater than or equal to 60% and less than 85%); with Portulaca oleracea (dosage 5 g/mu) it was 5 (Grade 5: the growth control rate is greater than or equal to 85%); with Portulaca oleracea (dosage 10 g/mu), 5 (Grade 5: the growth control rate is greater than or equal to 85%). For the same compound, the “Post-emergence herbicidal activity, A. retroflexus (grade)” value in the assay with Amaranthus retroflexus (dosage 2.5 g/mu), in the assay on Amaranthus retroflexus (dosage 5 g/mu) and with Amaranthus retroflexus (dosage 10 g/mu) was 5 (Grade 5: the growth control rate is greater than or equal to 85%) in each case. In addition, the “Post-emergence herbicidal activity, A. theophrasti (grade)” value in the assay with Abutilon theophrasti (dosage 2.5 g/mu), in the assay with Abutilon theophrasti (dosage 5 g/mu) and in the assay with Abutilon theophrasti (dosage 10 g/mu) was 5 (Grade 5: the growth control rate is greater than or equal to 85%) each time. The “Post-emergence herbicidal activity, S. viridis (grade)” value in the assay on Setaria viridis (dosage 2.5 g/mu) was 2 (Grade 2: the growth control rate is greater than or equal to 20% and less than 40%); in the assay with Setaria viridis (dosage 5 g/mu), 3 (Grade 3: the growth control rate is greater than or equal to 40% and less than 60%); with Setaria viridis (dosage 10 g/mu), 4 (Grade 4: the growth control rate is greater than or equal to 60% and less than 85%).
Take `Cc1cc(F)ccc1-c1noc(COc2cc(N3C(=O)C4=C(CCCC4)C3=O)c(F)cc2Cl)n1` [Compound A23]: the “Post-emergence herbicidal activity, Trifoliumre pensL. (grade)” value is 4 (Grade 4: the growth control rate is greater than or equal to 60% and less than 85%) in the assay on Trifoliumre pensL. (dosage 2.5 g/mu); 5 (Grade 5: the growth control rate is greater than or equal to 85%) in the assay with Trifoliumre pensL. (dosage 5 g/mu); 5 (Grade 5: the growth control rate is greater than or equal to 85%) in the assay on Trifoliumre pensL. (dosage 10 g/mu). Also, the “Post-emergence herbicidal activity, E. crusgalli (grade)” value in the assay on Echinochloa crusgalli (dosage 2.5 g/mu) was 1 (Grade 1: the growth control rate is greater than or equal to 5% and less than 20%); with Echinochloa crusgalli (dosage 5 g/mu), 2 (Grade 2: the growth control rate is greater than or equal to 20% and less than 40%); in the assay with Echinochloa crusgalli (dosage 10 g/mu), 3 (Grade 3: the growth control rate is greater than or equal to 40% and less than 60%). The “Post-emergence herbicidal activity, P. oleracea (grade)” value in the assay on Portulaca oleracea (dosage 2.5 g/mu) was 4 (Grade 4: the growth control rate is greater than or equal to 60% and less than 85%); in the assay on Portulaca oleracea (dosage 5 g/mu) it was 5 (Grade 5: the growth control rate is greater than or equal to 85%); with Portulaca oleracea (dosage 10 g/mu) it was 5 (Grade 5: the growth control rate is greater than or equal to 85%). Further, the “Post-emergence herbicidal activity, A. retroflexus (grade)” value with Amaranthus retroflexus (dosage 2.5 g/mu), in the assay with Amaranthus retroflexus (dosage 5 g/mu) and in the assay with Amaranthus retroflexus (dosage 10 g/mu) was 5 (Grade 5: the growth control rate is greater than or equal to 85%) each time. In addition, the “Post-emergence herbicidal activity, A. theophrasti (grade)” value in the assay on Abutilon theophrasti (dosage 2.5 g/mu), with Abutilon theophrasti (dosage 5 g/mu) and in the assay on Abutilon theophrasti (dosage 10 g/mu) was 5 (Grade 5: the growth control rate is greater than or equal to 85%) throughout. The “Post-emergence herbicidal activity, S. viridis (grade)” value is 2 (Grade 2: the growth control rate is greater than or equal to 20% and less than 40%) in the assay on Setaria viridis (dosage 2.5 g/mu); 3 (Grade 3: the growth control rate is greater than or equal to 40% and less than 60%) in the assay on Setaria viridis (dosage 5 g/mu); 4 (Grade 4: the growth control rate is greater than or equal to 60% and less than 85%) in the assay on Setaria viridis (dosage 10 g/mu).
